Data: patent US11667602B2, “Compounds and their use” (AstraZeneca AB, priority 2020, dated 2023)
Values after ≈ are worked out from the molar mass of the structure shown.

Columns and labels:
[1] = Human Liver Microsomal Stability (Test C); format: in vitro ADME; settings: human, liver microsomes
Protocol: Human Liver Microsomal Stability (Test C)
The assay was conducted according to the Human Liver Microsome Stability Assay described in pages 170-174 of Wernevik, J. et al., “A Fully Integrated Assay Panel for Early Drug Metabolism and Pharmacokinetics Profiling”, Assay and Drug Development Technologies, 2020, 18(4), 157-179. Data are reported in Table 36 as CLint (μl/min/mg protein). Where the assay was run multiple times for the same compound, the arithmetic mean is reported.

[2] = Rat Hepatocyte Stability (Test E); format: in vitro ADME; settings: rat, hepatocytes, geometric mean if run multiple times
Protocol: Rat Hepatocyte Stability (Test E)
The assay was conducted according to the Rat Hepatocyte Stability Assay described in pages 170-174 of Wernevik, J. et al., “A Fully Integrated Assay Panel for Early Drug Metabolism and Pharmacokinetics Profiling”, Assay and Drug Development Technologies, 2020, 18(4), 157-179. Data are reported in Table 36 as mean Clint(μl/min/10^6 cells). Where the assay was run multiple times for the same compound, the geometric mean is reported.

human RXFP1 = target: T1, human RXFP1 (Homo sapiens, UniProt Q9HBX9); test: RXFP1 Hu cAMP (Test A); format: cell-based; design: expressed in transfected cells; host or cells: Jump-In T-REx CHO-K1 cells (ThermoFisher), induced with 10 ng/ml doxycycline for 24 h; settings: RXFP1 Hu cAMP; for EC50: read-out: Test A EC50
T1 sequence (Q9HBX9 1-757): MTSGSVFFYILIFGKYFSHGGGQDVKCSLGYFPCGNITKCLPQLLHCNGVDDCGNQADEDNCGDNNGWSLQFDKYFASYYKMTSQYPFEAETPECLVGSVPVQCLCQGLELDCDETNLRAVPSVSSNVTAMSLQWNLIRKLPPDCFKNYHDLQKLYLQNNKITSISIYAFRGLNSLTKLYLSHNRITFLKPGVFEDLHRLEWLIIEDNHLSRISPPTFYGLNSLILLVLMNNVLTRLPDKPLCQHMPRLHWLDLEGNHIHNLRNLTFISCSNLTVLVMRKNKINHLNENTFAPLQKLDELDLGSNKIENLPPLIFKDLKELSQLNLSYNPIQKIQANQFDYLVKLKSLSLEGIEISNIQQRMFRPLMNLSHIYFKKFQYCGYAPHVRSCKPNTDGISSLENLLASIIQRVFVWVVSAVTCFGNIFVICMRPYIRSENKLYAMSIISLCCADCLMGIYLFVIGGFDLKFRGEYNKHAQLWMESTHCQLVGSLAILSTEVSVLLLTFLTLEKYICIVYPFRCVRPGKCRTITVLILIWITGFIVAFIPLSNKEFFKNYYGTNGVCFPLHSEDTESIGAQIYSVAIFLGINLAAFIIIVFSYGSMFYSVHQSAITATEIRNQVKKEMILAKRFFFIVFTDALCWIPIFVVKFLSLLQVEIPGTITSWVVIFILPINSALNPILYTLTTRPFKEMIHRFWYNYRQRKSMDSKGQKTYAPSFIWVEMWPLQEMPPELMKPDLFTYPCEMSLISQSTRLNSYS
Procedure, shortened: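 Competitive HTRF cAMP readout (2 h, room temperature) in CHO-K1 cells stably expressing human RXFP1, induced with 10 ng/ml doxycycline for 24 h; IBMX 0.5 mM final.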

Solubility (Test F) = format: physicochemical; settings: arithmetic mean if run multiple times
Protocol: The assay was conducted according to the Solubility Assay described in pages 164-167 of Wernevik, J. et al., “A Fully Integrated Assay Panel for Early Drug Metabolism and Pharmacokinetics Profiling”, Assay and Drug Development Technologies, 2020, 18(4), 157-179. Data are reported in Table 36 as solubility ([…]. Where the assay was run multiple times for the same compound, the arithmetic mean is reported.

[3] = Human Plasma Protein Binding (Test B); format: in vitro ADME; settings: fraction unbound (fu)
Protocol: Human Plasma Protein Binding (Test B)
The assay was conducted according to the Human Plasma Protein Binding Assay described in pages 167-170 of Wernevik, J. et al., “A Fully Integrated Assay Panel for Early Drug Metabolism and Pharmacokinetics Profiling”, Assay and Drug Development Technologies, 2020, 18(4), 157-179. Data are reported in Table 36 as fraction unbound (fu) (% free). Where the assay was run multiple times for the same compound, the arithmetic mean is reported.

| SMILES | microsomal CLint [1] [µL/min/mg] | hepatocyte CLint [2] [µL/min/1e6 cells] | Test A Sinf (human RXFP1) [%] | EC50 (human RXFP1) [nM] | solubility (Solubility (Test F)) [µM] | Test B Human Plasma Protein Binding (% free) [3] [% free] |
| --- | --- | --- | --- | --- | --- | --- |
| COc1cc(F)c(O[C@H]2CC[C@@H](C(=O)O)CC2)cc1C(=O)N[C@@H]1[C@H]2CC[C@H](C2)[C@@H]1C(=O)Nc1cccc(I)c1 [Example 185] | 48 | 83 | 108 | 200 | 270 (≈ 176 µg/mL) | 0.37 |
| O=C(N[C@@H]1[C@H]2CC[C@H](C2)[C@@H]1C(=O)Nc1cccc(S(=O)(=O)C(F)(F)F)c1)c1cc(O[C@H]2CC[C@@H](C(=O)O)CC2)c(F)cc1F [Example 430] | 61 | 22 | 101 | > 230 | 760 (≈ 490 µg/mL) | 3 |
| COc1cc(F)c(O[C@H]2CC[C@@](C)(C(=O)O)CC2)cc1C(=O)Nc1c(C)cc(C)cc1C(=O)NCC1(C)CCC1 [Example 211, (1s,4s)-4-(5-((2,4-Dimethyl-6-(((1-methylcyclobutyl)methyl)carbamoyl)phenyl)carbamoyl)-2-fluoro-4-methoxyphenoxy)-1-methylcyclohexane-1-carboxylic acid] | 5.2 | 12 | 100 | > 9300 | 29 (≈ 16.1 µg/mL) | 1.4 |
| COc1cc(C#N)c(O[C@H]2CC[C@@](C)(C(=O)O)CC2)cc1C(=O)N[C@@H]1[C@H]2CC[C@H](C2)[C@@H]1C(=O)NCC1(CO)CCCC1 [Example 109] | 11 | 26 | 103 | 250 | 810 (≈ 471 µg/mL) | 17 |
| CCOCC1(CNC(=O)[C@H]2[C@@H]3CC[C@@H](C3)[C@H]2NC(=O)c2cc(O[C@H]3CC[C@@](C)(C(=O)O)CC3)c(C#N)cc2OC)CCC1 [Example 104] | 59 | 28 | 122 | 270 | 920 (≈ 548 µg/mL) | 6.4 |
| COc1cc(F)c(O[C@H]2CC[C@@](C)(C(=O)O)CC2)cc1C(=O)N[C@@H]1CCC[C@@H]1C(=O)NCC1(C)CC1 [Example 68] | 4.4 | 14 | 97 | 840 | > 1000 | 14 |
| COc1cc(C#N)c(O[C@H]2CC[C@@](C)(C(=O)O)CC2)cc1C(=O)N[C@@H]1[C@H]2CC[C@H](C2)[C@@H]1C(=O)NCC1(F)CCOCC1 [Example 110] | < 3 | 19 | 102 | 740 | 950 (≈ 556 µg/mL) | 44 |

Now from value to compound:

| microsomal CLint [1] [µL/min/mg] | hepatocyte CLint [2] [µL/min/1e6 cells] | Test A Sinf (human RXFP1) [%] | EC50 (human RXFP1) [nM] | solubility (Solubility (Test F)) [µM] | Test B Human Plasma Protein Binding (% free) [3] [% free] | SMILES |
| --- | --- | --- | --- | --- | --- | --- |
| 3.5 | 130 | 100 | > 2200 | > 1000 | 15 | COc1cc(F)c(O[C@H]2CC[C@@H](C(=O)O)CC2)cc1C(=O)N[C@@H]1[C@H]2CC[C@H](C2)[C@@H]1C(=O)NC1CCC1 [Example 177] |
| 18 | 13 | 81 | 750 | 940 (≈ 559 µg/mL) | 3.7 | COc1cc(F)c(O[C@H]2CC[C@@H](C(=O)O)CC2)cc1C(=O)N[C@@H]1[C@H]2CC[C@H](C2)[C@@H]1C(=O)Nc1cc(C(F)(F)F)ncn1 [Example 31] |
| 5.8 | 110 | 100 | > 5900 | > 1000 | 14 | COc1cc(F)c(O[C@H]2CC[C@@H](C(=O)O)CC2)cc1C(=O)NC1C(C(=O)NCCCC(F)(F)F)[C@@H]2CC[C@H]1C2 (stereo partly drawn) [Example 175, (1S,4s)-4-(2-Fluoro-4-methoxy-5-(((1S,2R,3S,4R)-3-((4,4,4-trifluorobutyl)carbamoyl)bicyclo[2.2.1]heptan-2-yl)carbamoyl)phenoxy)cyclohexane-1-carboxylic acid] |
| 54 | 41 | 114 | 32 | 330 (≈ 191 µg/mL) | 2.5 | COc1cc(C#N)c(O[C@H]2CC[C@@](C)(C(=O)O)CC2)cc1C(=O)N[C@@H]1[C@H]2CC[C@H](C2)[C@@H]1C(=O)NCC1CCCCCC1 [Example 82] |
| 23 | 23 | 86 | 1300 | 820 (≈ 451 µg/mL) | 4.4 | COc1cc(C#N)c(O[C@H]2C[C@]3(C2)C[C@H](C(=O)O)C3)cc1C(=O)N[C@@H]1[C@H]2CC[C@H](C2)[C@@H]1C(=O)NCC1(C)CCC1 (single isomer, unassigned) [Example 7, (2R*,4r,6R)-6-(2-Cyano-4-methoxy-5-(((1S,2R,3S,4R)-3-(((1-methylcyclobutyl)methyl)carbamoyl)bicyclo[2.2.1]heptan-2-yl)carbamoyl)phenoxy)spiro[3.3]heptane-2-carboxylic acid] |
| 22 | 22 | 111 | 110 | 130 (≈ 79.4 µg/mL) | 0.72 | COc1cc(F)c(O[C@H]2CC[C@@H](C(=O)O)CC2)cc1C(=O)N[C@@H]1[C@H]2CC[C@H](C2)[C@@H]1C(=O)Nc1cc(F)cc(C(F)(F)F)c1 [Example 29] |
| 57 | 30 | 104 | 64 | 200 (≈ 144 µg/mL) | 0.54 | COc1cc(Br)c(O[C@H]2CC[C@@H](C(=O)O)CC2)cc1C(=O)N[C@@H]1[C@H]2CC[C@H](C2)[C@@H]1C(=O)Nc1cccc(S(=O)(=O)C(F)(F)F)c1 [Example 464, (1S,4s)-4-(2-Bromo-4-methoxy-5-(((1S,2R,3S,4R)-3-((3-((trifluoromethyl)sulfonyl)phenyl)carbamoyl)bicyclo[2.2.1]heptan-2-yl)carbamoyl)phenoxy)cyclohexane-1-carboxylic acid] |
| 23 | 14 | 130 |  | 51 (≈ 33.7 µg/mL) | 0.23 | COc1cc(F)c(O[C@H]2CC[C@@H](C(=O)O)CC2)cc1C(=O)N[C@@H]1[C@H]2CC[C@H](C2)[C@@H]1C(=O)Nc1cc(C(F)(F)F)cc(C(F)(F)F)c1 [Example 22, (1S,4s)-4-(5-(((1S,2R,3S,4R)-3-((3,5-Bis(trifluoromethyl)phenyl)carbamoyl)bicyclo[2.2.1]heptan-2-yl)carbamoyl)-2-fluoro-4-methoxyphenoxy)cyclohexane-1-carboxylic acid] |
| < 3 | 19 | 95 |  | > 1000 | 5.4 | COc1cc(F)c(O[C@H]2CC[C@@](C)(C(=O)O)CC2)cc1C(=O)N[C@@H]1[C@H]2CC[C@H](C2)[C@@H]1C(=O)N[C@@H](C)C(C)C [Example 42] |
